# Entries after “also recorded” stand apart in the source; their conditions may differ. Marks after values point to notes of the source that are not given here.
# Experiments:
# [1] = tested on: Streptococcus bovis; experiment: qPCR relative quantification of Streptococcus bovis; type: cell-based; conditions: 12 hours of incubation
# Description: (§1) Rumen cannulated calves which received a mixed ration mainly composed of concentrate (90:10) were used as rumen fluid donor; feed composition is presented in Table 1. The inoculum was collected and filtered through two-layer surgical gauze and kept in thermo pots. Flavonoids (Table 2) plus 600 mg of concentrate (Table 1) and 60 mg of barley straw as the substrate were dosed by triplicate in preheated bottles (39° C.) and maintained under anaerobic conditions. Flavonoids isonaringin, neoeritrocin, poncirin were purchased from INDOFINE Chemical Company, Inc (USA). 10 ml of rumen fluid and 40 ml of incubation medium were added to the bottles (McDougall, El (1948) Studies on ruminant saliva. 1. The composition and output of sheep's saliva. Biochem J. 43(1) 99-109). Once the bottles were filled and the anaerobic condition was applied, the bottles were sealed and the incubation process was started in a hot water bath. Pressure readings were made at 2, 4, 6, 8, 12, 24, 36 and 48 hours. Each sample was incubated in triplicate in two sets or batches.
# (§2) After 12 hours of incubation, one bottle (replicate) from each treatment was opened, pH was recorded and the bottle was sampled for volatile fatty acids (Jouany, J. P., 1982 Science des Aliments 2, 131-144), lactate (Taylor, K. A. C. C., 1996. Appl. Biochem. Biotechnol. Enzym. Eng. Biotechnol. 56, 49-58) and ammonia (Chaney, A. L., Marbach, E. P., 1962. Clin. Chem. 8, 130-132) analyses.
# (§3) The environmental DNA was extracted using the technique proposed by Yu and Morrison (2004). Quantification of Streptococcus bovis, Megasphaera elsdenii and Selenomonas ruminantium DNA was done by qPCR using specific primers (Tajima, K. et al. 2001. Appl. Environ. Microb. 67, 2766-2774; Ouwerkerk, D., et al. 2002. J. Appl. Microbiol. 92, 753-758). Results were statistically analyzed using the PROC MIXED procedure of SAS statistical package (SAS, 2000, User's guide: Statistics, version 8 editions inst., Inc., Cary, N.C.). The least significant difference was used to compare the means. Differences between means in which P<0.05 were accepted as significant.
# [2] = tested on: Selenomonas ruminantium; experiment: qPCR relative quantification of Selenomonas ruminantium; type: cell-based; conditions: 12 hours of incubation
# Description: as §1, §2, §3
# [3] = tested on: "in vitro" ruminal fluid cultures; experiment: Volatile fatty acid concentration and molar proportions in "in vitro" ruminal fluid cultures; type: cell-based, calves; conditions: for % Acetate, molar ratio, average (μ) / % Butyrate, molar ratio, average (μ) / % Propionate, molar ratio, average (M) / VFA concentration, average (μ): average over incubation times
# Source text: (§4) Two trials following an identical experimental protocol were designed to study the effect of different pure flavonoids on rumen fermentation using a simulatory “in vitro” system based on the experimental protocol described by Theodorou M K et al. (1994) Animal Feed Science and Technology, 48 (3), p. 185-197; Mauricio, R. M., et al. (1999) Animal Feed Science and Technology 79, 321-330.
# as §1
# […] P., 1982 Science des Aliments 2, 131-144), lactate (Taylor, K. A. C. C., 1996. Appl. Biochem. Biotechnol. Enzym. Eng. Biotechnol. 56, 49-58) and ammonia (Chaney, A. L., Marbach, E. P., 1962. Clin. Chem. 8, 130-132) analyses.
# [4] = tested on: "in vitro" ruminal fluid cultures; experiment: Ammonia (N-NH3) concentration in "in vitro" ruminal fluid cultures; type: cell-based, calves; conditions: for N-NH3 concentration, average (M): average over incubation times
# Source text: as §4, §1, §2
# [5] = tested on: Megasphaera elsdenii; experiment: qPCR relative quantification of Megasphaera elsdenii; type: cell-based; conditions: 12 hours of incubation
# Description: as §1, §2, §3
# [6] = tested on: methanogenic (archea) populations; experiment: Methane production in "in vitro" rumen fluid culture; type: cell-based, calves; parameters: Average methane production / Accumulated methane production / Methane production / Cumulative methane production: unit not given here; conditions: Exp 1
# Source text: as §4
# as §1, with “Pressure readings were made at 2, 4, 6, 8, 12, 24, 36 and 48 hours.” left out
# The effects of flavonoids substances on fermentation activity of certain archea populations which are theoretically responsible for the methane production were analyzed.
# The experimental design allows determining whether the effect of flavonoids on methane reduction was derived from a general reduction in microbial activity and biogas production or contrarily flavonoid affects specifically on methanogenic (archea) populations. The presence of flavonoids in the culture medium reduced methane contribution in the total biogas production (P<0.05) although, again, the aforementioned impact was heterogeneous.
# [7] = tested on: "in vitro" ruminal fluid cultures; experiment: Ammonia (N-NH3) concentration in "in vitro" ruminal fluid cultures; type: cell-based, calves; conditions: 72 h
# [8] = tested on: "in vitro" ruminal fluid culture; experiment: Lactate concentration in "in vitro" ruminal fluid culture; type: cell-based, calves; conditions: 12 hours of incubation
# Source text: as §4, §1, §2
# [9] = tested on: "in vitro" rumen fluid culture; experiment: Biogas production in "in vitro" rumen fluid culture (pressure meter); type: cell-based, calves; parameters: Average biogas production / Cumulative biogas production / Biogas production: unit not given here; conditions: Exp 1; for Average biogas production: average over doses and incubation times
# Description: as §4
# Gas production was determined from a semi-automatic pressure meter, the relationship between pressure levels and the produced gas volume was previously calculated.
# as §1, with “Pressure readings were made at 2, 4, 6, 8, 12, 24, 36 and 48 hours.” left out
# [10] = tested on: ruminal bacteria; experiment: Bacterial DNA concentration by qPCR; type: cell-based, calves; conditions: 12 hours of incubation
# Description: as §1, §2, §3
# [11] = average over doses and incubation times
# [12] = average over doses and incubation times, listed as neoeriocitrin
structure (smiles),measurement,setting,value
"C[C@@H]1O[C@@H](O[C@H]2[C@H](Oc3cc(O)c4c(c3)O[C@H](c3ccc(O)cc3)CC4=O)O[C@H](CO)[C@@H](O)[C@@H]2O)[C@H](O)[C@H](O)[C@H]1O [Naringin, naringin]",Relative Quantification 2^(ΔΔCt) S. bovis,[1],0.48
same,Relative Quantification 2^(ΔΔCt) S. ruminantium,[2],0.74
same,"% Acetate, molar ratio",[3]; 0 h,62.51 mol/100 mol
same,"% Butyrate, molar ratio",[3]; 0 h,9.07 mol/100 mol
same,"% Propionate, molar ratio",[3]; 0 h,20.03 mol/100 mol
same,A/P rate (acetate/propionate),[3]; 0 h,3.12
same,VFA concentration,[3]; 0 h (initial constant value),13.78 mmol/L
same,"% Acetate, molar ratio",[3]; 12 h,53.70 mol/100 mol
same,"% Butyrate, molar ratio",[3]; 12 h,10.47 mol/100 mol
same,"% Propionate, molar ratio",[3]; 12 h,30.00 mol/100 mol
same,A/P rate (acetate/propionate),[3]; 12 h,1.79
same,VFA concentration,[3]; 12 h,35.23 mmol/L
same,"% Acetate, molar ratio",[3]; 72 h,55.34 mol/100 mol
same,"% Butyrate, molar ratio",[3]; 72 h,10.33 mol/100 mol
same,"% Propionate, molar ratio",[3]; 72 h,26.75 mol/100 mol
same,A/P rate (acetate/propionate),[3]; 72 h,2.07
same,VFA concentration,[3]; 72 h,51.03 mmol/L
same,"% Acetate, molar ratio, average (μ)",[3],57.18 mol/100 mol
same,"% Butyrate, molar ratio, average (μ)",[3],9.96 ^ab mol/100 mol
same,"% Propionate, molar ratio, average (M)",[3],25.59 ^b mol/100 mol
same,"VFA concentration, average (μ)",[3],33.35 mmol/L
same,"% Propionate, molar ratio, average (M)",[3]; listed as naringin,improved
same,N-NH3 concentration,[4]; 0 h (initial constant value),149.99 mg/L
same,N-NH3 concentration,[4]; 12 h,172.47 mg/L
same,"N-NH3 concentration, average (M)",[4],219.57 mg/L
same,Relative Quantification 2^(ΔΔCt) M. elsdenii,[5],1.26 ^c
same,Accumulated methane production,[6]; 12 h,23.38
same,Proportion of methane in the produced biogas,[6]; 12 h,12.04
same,Accumulated methane production,[6]; 24 h,29.46
same,Proportion of methane in the produced biogas,[6]; 24 h,14.28
same,Accumulated methane production,[6]; 48 h,34.93
same,Proportion of methane in the produced biogas,[6]; 48 h,16.14
same,Accumulated methane production,[6]; 72 h,38.24
same,Proportion of methane in the produced biogas,[6]; 72 h,16.97
same,Proportion of methane in the produced biogas,[6]; [11],14.86^b
same,Average methane production,"[6]; average over doses and incubation times, listed as Naringina",31.50^b
same,Average methane production,"[6]; average over doses and incubation times, listed as naringin",not modified
same,Methane production,"[6]; dose 1, 0.2 g/kg DM",32.28
same,Proportion of methane in the produced biogas,"[6]; dose 1, 0.2 g/kg DM",14.87
same,Methane production,"[6]; dose 2, 0.5 g/kg DM",30.73
same,Proportion of methane in the produced biogas,"[6]; dose 2, 0.5 g/kg DM",14.85
same,N-NH3 concentration,[7],336.25 mg/L
same,Lactate,[8],77.8 mg/L
same,Cumulative biogas production,[9]; 12 h incubation,193.90
same,Cumulative biogas production,[9]; 24 h incubation,236.91
same,Cumulative biogas production,[9]; 48 h incubation,270.98
same,Cumulative biogas production,[9]; 72 h incubation,290.91
same,Average biogas production,[9],248.17^bc
same,Average biogas production,[9]; listed as naringin,did not change
same,Biogas production,"[9]; dose 1, 0.2 g/kg DM",251.15
same,Biogas production,"[9]; dose 2, 0.5 g/kg DM",245.19
same,Bacteria DNA,[10],22.15 ^ab μg/ml
C[C@@H]1O[C@@H](O[C@H]2[C@H](Oc3cc(O)c4c(c3)O[C@H](c3ccc(O)c(O)c3)CC4=O)O[C@H](CO)[C@@H](O)[C@@H]2O)[C@H](O)[C@H](O)[C@H]1O [Neoeriocitrin],Relative Quantification 2^(ΔΔCt) S. bovis,[1],0.62
same,Relative Quantification 2^(ΔΔCt) S. ruminantium,[2],0.79
same,"% Acetate, molar ratio",[3]; 0 h,62.51 mol/100 mol
same,"% Butyrate, molar ratio",[3]; 0 h,9.07 mol/100 mol
same,"% Propionate, molar ratio",[3]; 0 h,20.03 mol/100 mol
same,A/P rate (acetate/propionate),[3]; 0 h,3.12
same,VFA concentration,[3]; 0 h (initial constant value),13.78 mmol/L
same,"% Acetate, molar ratio",[3]; 12 h,55.73 mol/100 mol
same,"% Butyrate, molar ratio",[3]; 12 h,11.84 mol/100 mol
same,"% Propionate, molar ratio",[3]; 12 h,26.77 mol/100 mol
same,A/P rate (acetate/propionate),[3]; 12 h,2.09
same,VFA concentration,[3]; 12 h,39.75 mmol/L
same,"% Acetate, molar ratio",[3]; 72 h,56.21 mol/100 mol
same,"% Butyrate, molar ratio",[3]; 72 h,11.79 mol/100 mol
same,"% Propionate, molar ratio",[3]; 72 h,24.39 mol/100 mol
same,A/P rate (acetate/propionate),[3]; 72 h,2.31
same,VFA concentration,[3]; 72 h,53.75 mmol/L
same,"% Acetate, molar ratio, average (μ)",[3],58.15 mol/100 mol
same,"% Butyrate, molar ratio, average (μ)",[3],10.90 ^b mol/100 mol
same,"% Propionate, molar ratio, average (M)",[3],23.73 ^a mol/100 mol
same,"VFA concentration, average (μ)",[3],35.76 mmol/L
same,"% Propionate, molar ratio, average (M)",[3]; listed as neoeritrocin,23.7 mol/100 mol
same,N-NH3 concentration,[4]; 0 h (initial constant value),149.99 mg/L
same,N-NH3 concentration,[4]; 12 h,186.19 mg/L
same,"N-NH3 concentration, average (M)",[4],227.84 mg/L
same,Relative Quantification 2^(ΔΔCt) M. elsdenii,[5],0.76 ^a
same,Dosage effect on methane proportion of biogas,[6]; 500 vs. 200 mg/kg DM,tended to depress methane production
same,Accumulated methane production,[6]; 12 h,29.65
same,Proportion of methane in the produced biogas,[6]; 12 h,14.00
same,Accumulated methane production,[6]; 24 h,37.03
same,Proportion of methane in the produced biogas,[6]; 24 h,15.75
same,Accumulated methane production,[6]; 48 h,41.74
same,Proportion of methane in the produced biogas,[6]; 48 h,16.33
same,Accumulated methane production,[6]; 72 h,45.18
same,Proportion of methane in the produced biogas,[6]; 72 h,18.19
same,Average methane production,[6]; [11],38.40^a
same,Proportion of methane in the produced biogas,[6]; [11],16.07^a
same,Average methane production,[6]; [12],increased
same,Proportion of methane in the produced biogas,[6]; [12],significantly increased; also recorded: increased the methane proportion
same,Methane production,"[6]; dose 1, 0.2 g/kg DM",39.51
same,Proportion of methane in the produced biogas,"[6]; dose 1, 0.2 g/kg DM",15.96
same,Methane production,"[6]; dose 2, 0.5 g/kg DM",37.28
same,Proportion of methane in the produced biogas,"[6]; dose 2, 0.5 g/kg DM",16.17
same,N-NH3 concentration,[7],347.34 mg/L
same,Lactate,[8],122.5 mg/L
same,Cumulative biogas production,[9]; 12 h incubation,211.78
same,Cumulative biogas production,[9]; 24 h incubation,259.11
same,Cumulative biogas production,[9]; 48 h incubation,288.43
same,Cumulative biogas production,[9]; 72 h incubation,307.80
same,Biogas production,"[9]; dose 1, 0.2 g/kg DM",277.08
same,Biogas production,"[9]; dose 2, 0.5 g/kg DM",256.47
same,Bacteria DNA,[10],13.14 ^a μg/ml
